Experimental data: ChEMBL document CHEMBL1201862, “PubChem BioAssay data set” (2004)
Activity calls are given as the source filed them.

How the values were obtained:
[1] = A375 melanoma cell cytotoxicity, dose response, counter-screen for MITF inhibitor project, CellTiter-Glo luminescence, dry powder, set 2 (AID 624489); type: functional, cell-based; settings: A-375;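 further: actives are compounds lowering A375 viability meaning general cytotoxicity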
[2] = A375 melanoma cell viability loss, dose response, counter-screen for MITF inhibitor project, CellTiter-Glo luminescence, dry powder, set 4 (AID 624364); type: functional, cell-based; settings: A-375;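 further: A375 melanoma cells are MITF independent so this is a counter screen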
[3] = target: 1-phosphatidylinositol 4,5-bisphosphate phosphodiesterase beta-3 (Homo sapiens, UniProt Q01970); assay: Fluorescence-based biochemical high throughput dose response assay to identify inhibitors of phospholipase C isozymes (PLC-B3).
Sequence of 1-phosphatidylinositol 4,5-bisphosphate phosphodiesterase beta-3 (Q01970 whole entry): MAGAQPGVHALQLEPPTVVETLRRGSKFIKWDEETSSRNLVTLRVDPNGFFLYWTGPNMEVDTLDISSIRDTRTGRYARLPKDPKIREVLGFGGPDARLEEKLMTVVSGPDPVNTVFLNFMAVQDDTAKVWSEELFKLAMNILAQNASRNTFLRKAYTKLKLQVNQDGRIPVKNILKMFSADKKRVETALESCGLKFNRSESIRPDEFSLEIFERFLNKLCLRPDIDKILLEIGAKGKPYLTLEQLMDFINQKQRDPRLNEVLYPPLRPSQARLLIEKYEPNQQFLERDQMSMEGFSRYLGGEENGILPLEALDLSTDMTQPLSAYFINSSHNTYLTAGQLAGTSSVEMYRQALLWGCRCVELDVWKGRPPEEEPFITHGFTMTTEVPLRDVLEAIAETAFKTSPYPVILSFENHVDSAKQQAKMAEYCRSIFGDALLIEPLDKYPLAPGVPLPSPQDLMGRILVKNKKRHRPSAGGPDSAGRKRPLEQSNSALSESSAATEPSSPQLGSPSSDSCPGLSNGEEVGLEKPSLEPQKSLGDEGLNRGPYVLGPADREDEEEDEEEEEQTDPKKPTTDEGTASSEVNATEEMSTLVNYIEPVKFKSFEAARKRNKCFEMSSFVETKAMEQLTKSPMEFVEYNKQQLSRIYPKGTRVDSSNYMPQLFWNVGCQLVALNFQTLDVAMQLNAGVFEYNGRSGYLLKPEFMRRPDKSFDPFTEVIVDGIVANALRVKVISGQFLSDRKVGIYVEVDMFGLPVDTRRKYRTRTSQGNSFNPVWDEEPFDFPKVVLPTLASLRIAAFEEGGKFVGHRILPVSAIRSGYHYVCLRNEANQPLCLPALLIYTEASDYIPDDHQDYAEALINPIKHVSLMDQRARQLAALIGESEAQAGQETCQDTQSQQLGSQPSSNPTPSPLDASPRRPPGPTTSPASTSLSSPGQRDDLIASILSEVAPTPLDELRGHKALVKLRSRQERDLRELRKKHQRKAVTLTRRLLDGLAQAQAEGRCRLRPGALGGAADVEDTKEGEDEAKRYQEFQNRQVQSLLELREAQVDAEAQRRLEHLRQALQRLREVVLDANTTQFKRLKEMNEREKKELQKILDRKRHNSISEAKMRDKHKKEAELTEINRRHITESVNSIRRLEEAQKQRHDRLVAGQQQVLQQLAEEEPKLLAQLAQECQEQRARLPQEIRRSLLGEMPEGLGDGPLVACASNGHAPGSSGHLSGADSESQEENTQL

[4] = target: 1-phosphatidylinositol 4,5-bisphosphate phosphodiesterase gamma-1 (Homo sapiens, UniProt P19174); assay: Counterscreen for inhibitors of phospholipase C isozymes (PLC-B3): Fluorescence-based biochemical high throughput dose response assay to identify inhibitors of phospholipase C isozymes (PLC-gamma1).
[5] = MITF Orthogonal Assay: SK-MEL-5 CTG Assay Measured in Cell-Based System Using Plate Reader - 2084-02_Inhibitor_Dose_DryPowder_Activity_Set7.; type: functional
[6] = MITF: Counter assay: A375 proliferation Measured in Cell-Based System Using Plate Reader - 2084-03_Inhibitor_Dose_DryPowder_Activity_Set8.; type: functional; settings: A-375
[7] = TRPM1 promoter luciferase reporter signal decrease, dose response, MITF inhibitor project, cell-based, SK-MEL-5, dry powder, set 8 (AID 624430); type: functional
[8] = HEK293 cell cytotoxicity, dose response, cytotoxicity control, cherry-picks, set 5 (AID 1053117); type: functional, cell-based
[9] = HepG2 cell cytotoxicity, dose response, cytotoxicity control, cherry-picks, set 5 (AID 1053118); type: functional, cell-based
[10] = tested on: H9c2; assay: cells; type: functional, cell-based; settings: Rattus norvegicus, H9c2, Myocardium;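 further: confirmatory concentration-response retest of ultra-high-throughput screening hits for modulation of myocardial damage; cell death induced by hydrogen peroxide oxidative stress; compound pretreatment for 60 min then peroxide exposure for 2 h; potency is for protecting the cells against peroxide damage rather than for killing them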
[11] = target: Endoplasmic reticulum aminopeptidase 1 (Homo sapiens, UniProt Q9NZ08); assay: ERAP1 aminopeptidase inhibitors, dose response, biochemical, cherry-pick, set 2, plate reader (AID 743314)
Sequence of Endoplasmic reticulum aminopeptidase 1 (Q9NZ08 whole entry): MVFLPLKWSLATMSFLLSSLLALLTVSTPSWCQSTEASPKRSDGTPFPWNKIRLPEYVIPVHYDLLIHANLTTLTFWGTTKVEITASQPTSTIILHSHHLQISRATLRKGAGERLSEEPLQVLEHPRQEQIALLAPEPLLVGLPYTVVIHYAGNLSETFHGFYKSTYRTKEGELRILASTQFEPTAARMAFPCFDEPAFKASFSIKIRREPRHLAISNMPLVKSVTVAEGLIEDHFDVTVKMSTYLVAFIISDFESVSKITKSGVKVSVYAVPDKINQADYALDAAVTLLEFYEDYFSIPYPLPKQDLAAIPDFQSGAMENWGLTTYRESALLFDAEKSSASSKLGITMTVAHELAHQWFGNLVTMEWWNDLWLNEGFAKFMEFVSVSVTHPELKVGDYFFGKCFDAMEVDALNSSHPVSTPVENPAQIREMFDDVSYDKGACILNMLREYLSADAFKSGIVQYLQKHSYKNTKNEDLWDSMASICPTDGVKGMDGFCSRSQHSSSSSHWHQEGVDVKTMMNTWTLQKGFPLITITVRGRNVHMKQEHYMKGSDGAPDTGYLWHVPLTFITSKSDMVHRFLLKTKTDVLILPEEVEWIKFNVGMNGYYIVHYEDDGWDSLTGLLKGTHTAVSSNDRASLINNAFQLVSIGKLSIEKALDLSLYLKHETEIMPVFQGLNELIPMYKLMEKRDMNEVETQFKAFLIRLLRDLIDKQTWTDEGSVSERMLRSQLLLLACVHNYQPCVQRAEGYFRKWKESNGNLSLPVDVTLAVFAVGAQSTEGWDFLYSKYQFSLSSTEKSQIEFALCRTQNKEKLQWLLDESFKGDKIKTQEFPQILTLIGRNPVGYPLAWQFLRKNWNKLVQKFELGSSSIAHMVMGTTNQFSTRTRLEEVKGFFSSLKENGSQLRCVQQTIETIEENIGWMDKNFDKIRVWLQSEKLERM

[12] = cells; settings: HEK293
[13] = HepG2 cell cytotoxicity, dose response, cytotoxicity control, ATP luminescence, cherry-pick, set 6 (AID 1053125); type: functional, cell-based
[14] = cells; settings: A549
[15] = cells
[16] = BHK-21 cell cytotoxicity, cytotoxicity control for flavivirus guanylyltransferase probe project, secondary screen (AID 624078); type: functional
[17] = A549 cell cytotoxicity, dose response, cytotoxicity control, cherry-picks, 26 µM top dose (AID 1053119); type: functional, cell-based
[18] = target: Nonstructural protein 1 (Influenza A virus, UniProt Q194T2); type: functional, Influenza A virus (A/California/07/2009(H1N1))
Sequence of Nonstructural protein 1 (Q194T2 whole entry): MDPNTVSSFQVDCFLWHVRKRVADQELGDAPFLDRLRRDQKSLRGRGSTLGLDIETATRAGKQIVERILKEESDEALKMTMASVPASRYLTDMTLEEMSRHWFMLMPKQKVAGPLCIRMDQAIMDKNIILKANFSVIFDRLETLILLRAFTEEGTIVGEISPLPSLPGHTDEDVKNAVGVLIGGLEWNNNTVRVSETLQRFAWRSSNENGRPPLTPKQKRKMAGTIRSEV

[19] = HEp-2 cell cytotoxicity, dose response, cytotoxicity control for RSV inhibitor project, HTS (AID 2410); type: functional; settings: human respiratory syncytial virus
[20] = growth suppression of PTEN-null colon cells, dose response, cell-based, HCT116 PTEN knockout (AID 1047); type: functional;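 further: HCT116 colon tumor cells with PTEN knocked out; cells exposed to compound for 60 hours before readout; potency for loss of cell viability measured by luminescence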
[21] = Luminescence Cell-Based Dose Retest to Confirm Inhibitors of Cancer Stem Cells. [Related pubchem assays (depositor defined):AID2717, AID2721]; type: functional; settings: Homo sapiens
[22] = inhibitors of PGC1a acetylation in cells, dose response, cell-based, cherry-picked samples (AID 720514); type: functional;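 further: potency may reflect raised or lowered acetylation signal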
[23] = growth suppression of beta-catenin-knockout colon cells, dose response, cell-based, HCT116, human colon tumor (AID 1045); type: functional;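 further: HCT116 colon tumor cells with beta catenin knocked out; cells exposed to compound for 60 hours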
[24] = human group III sPLA2 inhibitors, dose response, biochemical, QFRET, IC50 (AID 743457);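 further: green fluorescence rise as the enzyme cleaves BODIPY PC-A2 in liposomes; potency for inhibition of the enzyme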
[25] = target: NAD-dependent protein deacylase sirtuin-5, mitochondrial (Homo sapiens, UniProt Q9NXA8); assay: SIRT5 desuccinylase inhibitors, dose response, biochemical, fluorescence imaging, cherry-pick, set 5 (AID 720591);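 further: desuccinylation of succinyl peptide AMC substrate read as fluorescence after trypsin release; potency of inhibitors that lower fluorescence and may act on trypsin instead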
Sequence of NAD-dependent protein deacylase sirtuin-5, mitochondrial (Q9NXA8 whole entry): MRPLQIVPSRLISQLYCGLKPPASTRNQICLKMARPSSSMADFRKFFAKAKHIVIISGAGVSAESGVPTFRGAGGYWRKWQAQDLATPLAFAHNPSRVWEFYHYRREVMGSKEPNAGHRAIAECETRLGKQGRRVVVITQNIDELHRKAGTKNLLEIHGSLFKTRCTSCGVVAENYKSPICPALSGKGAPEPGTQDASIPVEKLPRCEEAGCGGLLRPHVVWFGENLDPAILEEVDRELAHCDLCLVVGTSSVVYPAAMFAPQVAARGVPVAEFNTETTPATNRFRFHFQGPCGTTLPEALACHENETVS

[26] = HeLa cell cytotoxicity, dose response, cytotoxicity control, 24 h, plate reader, dry powder (AID 686928); type: functional, cell-based
[27] = target: Kallikrein-7 (Homo sapiens, UniProt P49862); assay: Fluorescence Intensity-based biochemical primary high throughput dose response assay to identify activators of kallikrein-7 (K7) zymogen.
Sequence of Kallikrein-7 (P49862 whole entry): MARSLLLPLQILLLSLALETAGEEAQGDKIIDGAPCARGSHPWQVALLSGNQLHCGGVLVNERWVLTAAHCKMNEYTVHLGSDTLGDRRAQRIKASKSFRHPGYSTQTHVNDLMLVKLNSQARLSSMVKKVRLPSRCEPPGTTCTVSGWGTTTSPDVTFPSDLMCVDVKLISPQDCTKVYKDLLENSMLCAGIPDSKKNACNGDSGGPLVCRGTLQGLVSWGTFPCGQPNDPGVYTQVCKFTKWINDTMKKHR

[28] = target: Potassium channel subfamily K member 9 (Homo sapiens, UniProt Q9NPC2); assay: TASK3 (KCNK9) channel inhibitors, thallium flux, SAR follow-up, selectivity assay for TASK1 inhibitor project, cell-based, FluxOR thallium flux, concentration-response (AID 652211); type: functional;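 further: potency is for inhibitors of the channel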
Sequence of Potassium channel subfamily K member 9 (Q9NPC2 whole entry): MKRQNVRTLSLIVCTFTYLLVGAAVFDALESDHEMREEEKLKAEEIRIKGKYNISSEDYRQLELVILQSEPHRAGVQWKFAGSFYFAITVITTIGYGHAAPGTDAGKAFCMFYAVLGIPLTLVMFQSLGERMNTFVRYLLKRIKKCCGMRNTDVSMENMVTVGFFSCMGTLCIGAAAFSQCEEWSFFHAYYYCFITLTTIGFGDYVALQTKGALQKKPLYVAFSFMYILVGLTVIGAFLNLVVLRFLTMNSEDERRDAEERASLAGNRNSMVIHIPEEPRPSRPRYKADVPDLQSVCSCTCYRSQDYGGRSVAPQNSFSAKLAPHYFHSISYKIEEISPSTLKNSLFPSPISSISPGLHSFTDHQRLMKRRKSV

[29] = target: Potassium channel subfamily K member 3 (Homo sapiens, UniProt O14649); assay: TASK1 (KCNK3) potassium channel inhibitors, SAR follow-up, CHO cells, FluxOR thallium flux (AID 652212); type: functional
Sequence of Potassium channel subfamily K member 3 (O14649 whole entry): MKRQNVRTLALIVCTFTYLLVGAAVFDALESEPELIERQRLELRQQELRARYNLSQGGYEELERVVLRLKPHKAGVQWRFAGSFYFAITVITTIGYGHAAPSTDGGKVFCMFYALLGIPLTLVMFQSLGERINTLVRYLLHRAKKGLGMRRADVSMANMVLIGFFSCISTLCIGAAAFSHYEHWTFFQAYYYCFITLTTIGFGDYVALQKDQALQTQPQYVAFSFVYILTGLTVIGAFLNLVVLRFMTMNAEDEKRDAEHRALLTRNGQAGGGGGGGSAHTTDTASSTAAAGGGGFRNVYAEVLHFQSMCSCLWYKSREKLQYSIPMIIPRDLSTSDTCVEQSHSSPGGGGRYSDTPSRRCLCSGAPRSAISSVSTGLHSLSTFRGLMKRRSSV

[30] = target: T1, Caspase-6 (Homo sapiens, UniProt P55212); assay: human caspase-6 inhibitors, dose response, biochemical, VEID-R110 fluorescence, dry powder retest (AID 743332)
T1 sequence (P55212 whole entry): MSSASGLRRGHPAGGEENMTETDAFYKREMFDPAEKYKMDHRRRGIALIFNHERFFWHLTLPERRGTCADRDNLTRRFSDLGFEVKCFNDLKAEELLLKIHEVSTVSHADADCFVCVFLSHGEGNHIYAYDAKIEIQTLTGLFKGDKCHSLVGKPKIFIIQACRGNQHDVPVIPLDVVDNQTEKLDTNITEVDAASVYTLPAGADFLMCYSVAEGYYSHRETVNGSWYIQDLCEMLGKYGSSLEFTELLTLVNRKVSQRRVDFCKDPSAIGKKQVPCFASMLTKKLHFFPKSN

[31] = ADAM10 protease inhibitors, dose response, selectivity assay for ADAM17 exosite inhibitor project, biochemical, FRET peptide substrate, recombinant human ADAM10 (AID 743259);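 further: ADAM10 enzyme cleaving a FRET peptide substrate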
[32] = target: T2, Disintegrin and metalloproteinase domain-containing protein 17 (Homo sapiens, UniProt P78536); assay: exosite inhibitors of ADAM17, dose response, biochemical (AID 743260)
T2 sequence (P78536 whole entry, the tested form may be a part): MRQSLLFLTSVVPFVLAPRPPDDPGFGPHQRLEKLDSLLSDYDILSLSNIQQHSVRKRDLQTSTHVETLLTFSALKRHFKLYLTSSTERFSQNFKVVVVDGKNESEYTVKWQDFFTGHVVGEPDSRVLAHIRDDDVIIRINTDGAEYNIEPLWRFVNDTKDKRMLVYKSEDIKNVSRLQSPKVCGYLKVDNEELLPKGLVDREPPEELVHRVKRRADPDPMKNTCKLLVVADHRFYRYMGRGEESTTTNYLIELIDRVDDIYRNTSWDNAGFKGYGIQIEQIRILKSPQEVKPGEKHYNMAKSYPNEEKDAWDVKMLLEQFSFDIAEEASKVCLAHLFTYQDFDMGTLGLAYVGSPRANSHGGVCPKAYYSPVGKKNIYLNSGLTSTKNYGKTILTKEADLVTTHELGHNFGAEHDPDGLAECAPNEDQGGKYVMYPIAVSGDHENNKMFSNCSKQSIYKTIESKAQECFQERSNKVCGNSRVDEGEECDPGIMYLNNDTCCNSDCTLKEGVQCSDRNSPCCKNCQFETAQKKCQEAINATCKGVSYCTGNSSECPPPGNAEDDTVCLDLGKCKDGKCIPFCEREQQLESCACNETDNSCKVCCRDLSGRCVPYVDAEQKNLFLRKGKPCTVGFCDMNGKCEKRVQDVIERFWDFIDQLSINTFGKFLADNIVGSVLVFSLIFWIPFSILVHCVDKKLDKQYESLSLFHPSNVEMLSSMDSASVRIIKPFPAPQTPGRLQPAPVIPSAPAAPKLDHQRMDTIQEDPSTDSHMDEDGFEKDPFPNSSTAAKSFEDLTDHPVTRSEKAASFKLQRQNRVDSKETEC

[33] = IGROV1 ovarian cancer cell cytotoxicity, dose response, PAX8 inhibitor project, plate reader, dry powder samples (AID 743043); type: functional, cell-based; settings: IGROV-1
[34] = A2780 ovarian cancer cell cytotoxicity, dose response, cytotoxicity control, plate reader, dry powder samples (AID 743046); type: functional, cell-based
[35] = target: Paired box protein Pax-8 (Homo sapiens, UniProt Q06710); assay: inhibitors of PAX8-driven TPO luciferase reporter, dose response, RMG-I cells, cherry-pick (AID 687027); type: functional, cell-based;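 further: luciferase reporter driven by Pax8 target thyroperoxidase promoter measured by SteadyGlo luminescence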
Sequence of Paired box protein Pax-8 (Q06710 whole entry): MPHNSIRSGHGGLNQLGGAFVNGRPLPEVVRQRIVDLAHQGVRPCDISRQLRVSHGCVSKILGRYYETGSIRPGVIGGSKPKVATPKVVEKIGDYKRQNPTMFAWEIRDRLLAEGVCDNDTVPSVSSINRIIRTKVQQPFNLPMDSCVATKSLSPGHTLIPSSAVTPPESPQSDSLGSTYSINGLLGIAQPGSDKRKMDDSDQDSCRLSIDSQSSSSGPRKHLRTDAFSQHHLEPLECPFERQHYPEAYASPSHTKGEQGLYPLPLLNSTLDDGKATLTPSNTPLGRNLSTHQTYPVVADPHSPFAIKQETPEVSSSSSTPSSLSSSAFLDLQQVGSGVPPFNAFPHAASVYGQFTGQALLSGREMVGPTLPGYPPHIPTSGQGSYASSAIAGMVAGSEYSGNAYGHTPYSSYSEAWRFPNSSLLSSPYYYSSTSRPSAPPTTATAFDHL

[36] = NIH:OVCAR-3 ovarian cancer cell cytotoxicity, dose response, PAX8 inhibitor project, plate reader, dry powder samples (AID 743044); type: functional, cell-based
[37] = IOSE-T80 ovarian epithelial cell cytotoxicity, dose response, cytotoxicity control for PAX8 inhibitor project, plate reader, dry powder samples (AID 743045); type: functional, cell-based
[38] = cytotoxicity in OVCAR8 ovarian cancer cells, dose response, PAX8 project, cell-based, plate reader, dry powder samples (AID 743197); type: functional; settings: OVCAR-8
[39] = LGR2 antagonists, dose response, cell-based, HEK293, CRE-luciferase reporter, cherry pick (AID 743342); type: functional
[40] = target: T2, Disintegrin and metalloproteinase domain-containing protein 17; assay: ADAM17 protease inhibitors, dose response, counter-screen for ADAM10 exosite inhibitor project, biochemical, quenched FRET substrate (AID 743253)
[41] = ADAM10 inhibitors, peptide cleavage, dose response, biochemical, QFRET (AID 743254);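 further: ADAM10 enzyme with the DM2 quenched FRET peptide as substrate; EDANS fluorescence gain as the protease cuts the substrate; inhibitor potency against ADAM10 proteolytic activity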
[42] = target: T3, Protein skinhead-1 (Caenorhabditis elegans, UniProt P34707); type: functional
T3 sequence (P34707 whole entry): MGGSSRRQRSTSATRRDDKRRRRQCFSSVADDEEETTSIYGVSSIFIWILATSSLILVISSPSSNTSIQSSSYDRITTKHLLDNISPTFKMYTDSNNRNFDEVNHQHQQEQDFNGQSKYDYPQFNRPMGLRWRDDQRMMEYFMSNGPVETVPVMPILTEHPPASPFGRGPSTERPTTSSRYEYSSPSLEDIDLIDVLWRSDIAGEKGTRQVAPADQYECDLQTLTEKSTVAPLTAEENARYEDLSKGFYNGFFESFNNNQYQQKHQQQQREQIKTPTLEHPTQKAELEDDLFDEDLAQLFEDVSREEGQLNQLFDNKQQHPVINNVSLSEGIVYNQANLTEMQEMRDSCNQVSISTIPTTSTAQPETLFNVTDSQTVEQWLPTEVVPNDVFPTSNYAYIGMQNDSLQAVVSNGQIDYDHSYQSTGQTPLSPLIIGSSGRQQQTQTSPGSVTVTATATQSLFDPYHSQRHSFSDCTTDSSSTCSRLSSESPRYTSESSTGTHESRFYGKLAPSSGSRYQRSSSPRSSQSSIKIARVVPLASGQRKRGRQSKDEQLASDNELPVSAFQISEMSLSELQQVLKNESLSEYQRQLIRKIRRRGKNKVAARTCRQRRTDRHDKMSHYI

[43] = target: T4, Oxysterols receptor LXR-beta (Homo sapiens, UniProt P55055); type: functional, cell-based;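 further: agonist activity at LXR measured by a cell-based luminescence readout across a dose range, run as a counterscreen for daf-12 agonists; HEK293 cells with Gal4-LXR fusion and GAL4-driven luciferase reporter; potency for activation of Gal4-LXR reporter so compounds are agonists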
T4 sequence (P55055 whole entry): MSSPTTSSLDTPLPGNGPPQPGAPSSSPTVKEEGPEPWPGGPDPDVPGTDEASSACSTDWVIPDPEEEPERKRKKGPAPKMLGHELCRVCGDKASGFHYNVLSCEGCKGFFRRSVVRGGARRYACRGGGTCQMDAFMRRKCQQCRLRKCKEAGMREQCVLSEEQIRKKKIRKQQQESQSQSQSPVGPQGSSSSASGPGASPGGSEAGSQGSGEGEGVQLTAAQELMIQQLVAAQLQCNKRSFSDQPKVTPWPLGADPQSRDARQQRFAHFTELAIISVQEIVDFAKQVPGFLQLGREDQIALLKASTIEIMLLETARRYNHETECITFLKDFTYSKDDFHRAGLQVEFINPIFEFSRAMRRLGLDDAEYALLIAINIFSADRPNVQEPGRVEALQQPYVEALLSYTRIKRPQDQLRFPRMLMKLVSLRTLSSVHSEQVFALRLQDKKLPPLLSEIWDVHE

[44] = HEK293T cytotoxicity, dose response, cytotoxicity control for miR-122 modulator project, cell-based, inhibitor set, cherry-pick, set 2 (AID 720697); type: functional

O=C1C(NS(=O)(=O)c2ccc(Br)cc2)=C(N2CCOCC2)C(=O)c2ccccc21
AC50 [1]: > 70 µM (inactive) | AC50 [2]: > 70 µM (inactive)

Cc1cc(OCC(=O)OCC(=O)NCc2ccc3c(c2)OCO3)ccc1Cl
IC50 [3]: > 123 µM (inactive) | IC50 [4]: > 123 µM (inactive)

CN1CCN(C2=C(Nc3cccc(Br)c3)C(=O)c3ccccc3C2=O)CC1
AC50 [5]: 12.3 µM (active) | AC50 [6]: 39.3 µM (active) | AC50 [7]: 4.79 µM (active)

C[C@@H]1CN([C@@H](C)CO)C(=O)c2cc(-c3ccccc3)cnc2O[C@H]1CN(C)Cc1ccccc1
AC50 [8]: > 52 µM (inactive) | AC50 [9]: > 52 µM (inactive)

CCCCc1cc(=O)oc2cc(O)ccc12
IC50 [10]: > 79 µM (inactive) | AC50 [11]: 7.25 µM (active)

CCOc1ccc2nc(NCCN=C(S)NCCCN(C)C)c(C#N)cc2c1
AC50 [12]: > 52 µM (inactive) | AC50 [13]: > 52 µM (inactive) | AC50 [14]: > 52 µM (inactive) | AC50 [15]: > 32 µM (inactive)

O=S(=O)(Nc1cc(Sc2ccccc2)c(O)c2ccccc12)c1ccc(F)cc1
CC50 [16]: 13.4 µM (active)

CN(C)C(=O)c1ccc(-c2ccc3c(c2)[C@H]2[C@H](CCN2C(=O)c2ccc(F)cc2)[C@H](CO)N3C)cc1
AC50 [17]: 43.6 µM (active)

CCCOc1ccccc1-n1sc2c(c1=S)-c1cc(OC)cc3c1N(C(=O)C3=O)C2(C)C
IC50 [18]: 9.35 µM (active) | CC50 [19]: 21.4 µM (active) | EC50 [20]: 19.9 µM (active) | AC50 [21]: 5.35 µM (active) | AC50 [22]: 19.4 µM (active) | EC50 [23]: 22 µM (active)

Cc1cccc(NC(=O)NNC(=O)c2ccc3ccccc3c2O)c1
IC50 [24]: > 122 µM (inactive)

O=C(O)c1ccc(S(=O)(=O)N(Cc2ccccc2)C2CCCCC2)cc1
AC50 [25]: > 30 µM (inactive)

CC(C)(C)COC(=O)CSc1n[nH]c(=O)[nH]c1=O
AC50 [26]: > 76 µM (inactive)

COc1ccc(/C=N/NC(=O)c2cc3c(ccc4ccccc43)o2)cc1OC
EC50 [27]: > 23.2 µM (inactive)

CCOc1ccccc1NC(=O)c1cccc(NC(=O)c2ccc(C)cc2)c1
IC50 [28]: 14.7 µM (active) | IC50 [29]: 0.134 µM (active)

O=C(c1ccc(-n2cccc2)cc1)N1CCN(S(=O)(=O)c2ccccc2)CC1
AC50 [30]: 23.9 µM (active)

NS(=O)(=O)c1ccc(NCc2cc(Cl)ccc2OCc2ccc(F)cc2)cc1
IC50 [31]: > 23.2 µM (inactive) | IC50 [32]: > 69.5 µM (inactive)

CS(=O)(=O)Nc1ccc2c(c1)[C@@H]1C[C@@H](CC(=O)NCc3ccc(Oc4ccccc4)cc3)O[C@@H](CO)[C@@H]1O2
AC50 [33]: 6.7 µM (active) | AC50 [34]: 6.31 µM (active) | AC50 [35]: 1.95 µM (active) | AC50 [36]: 3.38 µM (active) | AC50 [37]: 8.81 µM (active) | AC50 [38]: 11.3 µM (active)

C[C@H](CO)N1C[C@H](C)[C@H](CN(C)C(=O)Nc2ccc3c(c2)OCO3)OCCCC[C@H](C)Oc2ccc(NC(=O)NC3CCCCC3)cc2C1=O
AC50 [39]: 9.97 µM (active)

CC(O)(c1ccc(F)c(F)c1)c1nc(-c2cc3ccccc3o2)cs1 (centres undefined)
IC50 [40]: > 69.5 µM (inactive) | IC50 [41]: 10.5 µM (inactive)

Cc1cc2nn(-c3ccc(F)cc3)nc2cc1N
IC50 [42]: > 100 µM (inactive) | EC50 [43]: > 67.5 µM (inactive)

Cn1c(-c2ccc(N)cc2)nc2ccccc21
AC50 [44]: 9.34 µM (active)
